Experiments:
asthma [1] = settings: single administration of metered-dose aerosol; cited from earlier work
[2] = Glycopyrrolate therapy, summary of findings of the studies; format: in vivo
From the text: Further, it is apparent that different dosages of the drug, without side-effects, are essentially equivalent in effect. […] This makes the medicament particularly suitable for the treatment of bronchospasm, or as a rescue medication.

asthma [3] = settings: inhaled; cited from earlier work

Tachycardia ([2]; problems associated with anti-muscarinics): apparently absent
SMILES: C[N+]1(C)CCC(OC(=O)C(O)(c2ccccc2)C2CCCC2)C1 (centres unmarked) [glycopyrrolate]
Period of bronchodilation (asthma [1]): 12 h
Onset of bronchodilation ([2]; in vivo): high and immediate
Duration of effective treatment (asthma [3]): up to 12 hours
Duration of effective treatment, maximal (asthma [3]): up to 8 hours

— patent US20080020048A1, “Treatment of Respiratory Disease” (priority 2004, published 2008)
